The target in the assay is human Edg-2 receptor (Homo sapiens, UniProt Q92633). The experiment in a line: Determination of Edg-2 receptor inhibition by FLIPR measurements (LPA-mediated calcium liberation). The class given is cell-based. The conditions noted are these: CHO cells overexpressing human Edg-2 receptor, LPA 100 nM, fluo-4 calcium fluorescence; read-out: Inhibitory concentrations IC50 for inhibition of the Edg-2 receptor. In short, it runs like this: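 CHO cells stably overexpressing human Edg-2, loaded with fluo-4 AM, were pre-incubated ~5 min with compound (≤0.3% DMSO), then stimulated with 100 nM LPA 18:1 in HBSS/HEPES/probenecid, pH 7.5. Peak calcium fluorescence over ~3 min, baseline-corrected, versus DMSO gave % inhibition; IC50 from triplicates.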

Experimental findings from patent US9018383B2, “Acylamino-substituted cyclic carboxylic acid derivatives and their use as pharmaceuticals” (Sanofi, priority 2009, dated 2015) are described below.

Chain of human Edg-2 receptor (Q92633 whole entry): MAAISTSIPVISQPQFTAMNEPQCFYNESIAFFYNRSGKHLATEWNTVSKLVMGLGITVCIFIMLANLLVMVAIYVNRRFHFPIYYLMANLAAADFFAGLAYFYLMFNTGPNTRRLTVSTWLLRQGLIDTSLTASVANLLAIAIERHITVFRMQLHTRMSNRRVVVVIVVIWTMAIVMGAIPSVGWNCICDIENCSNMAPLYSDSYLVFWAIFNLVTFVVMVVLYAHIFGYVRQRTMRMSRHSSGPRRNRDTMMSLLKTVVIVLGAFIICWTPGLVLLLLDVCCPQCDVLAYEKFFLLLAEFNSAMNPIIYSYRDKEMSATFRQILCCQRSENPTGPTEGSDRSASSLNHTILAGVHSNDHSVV

In the case of `C[C@H]1CC[C@](NC(=O)c2ccc(OCCO)c(OCCc3ccccc3)c2)(C(=O)O)CC1` [Example 421, cis-1-[4-(2-Hydroxy-ethoxy)-3-phenethyloxy-benzoylamino]-4-methyl-cyclohexanecarboxylic acid], the IC50 was in the range of 100 to 1000 nM.

With `COc1ccc(C(=O)NC2(C(=O)O)CCCCCC2)cc1OCCc1cccc(CCO)c1` [Example 107, 1-(3-{2-[3-(2-Hydroxy-ethyl)-phenyl]-ethoxy}-4-methoxy-benzoylamino)-cycloheptanecarboxylic acid], the IC50 was less than 100 nM.

For `COc1ncc(C(=O)NC2(C(=O)O)CCCCCC2)cc1OCCc1cc(C)ccc1C` [Example 87, 1-({5-[2-(2,5-Dimethyl-phenyl)-ethoxy]-6-methoxy-pyridine-3-carbonyl}-amino)-cycloheptanecarboxylic acid], the IC50 is 1000 to 30000 nM.

As for `COc1ncc(C(=O)N[C@]2(C(=O)O)CC[C@@H](C)CC2)cc1OCCc1ccccc1` [Example 83, trans-1-{[6-Methoxy-5-(2-phenyl-ethoxy)-pyridine-3-carbonyl]-amino}-4-methyl-cyclohexanecarboxylic acid], the IC50 was less than 100 nM.

Take `COc1ccc(C(=O)NC2(C(=O)O)CCCCCC2)cc1-c1cccc(NS(=O)(=O)N(C)C)c1` [Example 103]: the IC50 was 100 to 1000 nM.

As to `COc1ncc(C(=O)NC2(C(=O)O)CCCCCC2)cc1-c1cccc(C#N)c1` [Example 92, 1-{[5-(3-Cyano-phenyl)-6-methoxy-pyridine-3-carbonyl]-amino}-cycloheptanecarboxylic acid], the IC50 was in the range of 1000 to 30000 nM.

`COc1ncc(C(=O)NC2(C(=O)O)CCCCCC2)cc1-c1cccc(C(F)(F)F)c1` [Example 100]: the IC50 was less than 100 nM.

`CCC(COc1cc(C(=O)NC2(C(=O)O)CCCCCC2)ccc1OC)c1ccccc1` (stereo not drawn) [Example 14]: the IC50 was in the range of 100 to 1000 nM.

Turning to `COc1ccc(C(=O)NC2(C(=O)O)CCCCCC2)cc1OCC1CC=CCC1` (stereo not drawn) [Example 12], the IC50 fell in the range of 100 to 1000 nM.

In the case of `CC[C@H]1CC[C@@](NC(=O)c2ccc(OC)c(OCCc3cccc(CCO)c3)c2)(C(=O)O)CC1` [Example 112, trans-4-Ethyl-1-(3-{2-[3-(2-hydroxy-ethyl)-phenyl]-ethoxy}-4-methoxy-benzoylamino)-cyclohexanecarboxylic acid], the IC50 is less than 100 nM.

`COc1ccc(C(=O)NC2(C(=O)O)CCCCCC2)cc1OCCc1cccc(C(F)(F)F)c1` [Example 363]: the IC50 fell in the range of 100 to 1000 nM.

Take `CCc1ncc(C(=O)N[C@]2(C(=O)O)CC[C@@H](C)CC2)cc1OCCc1cccc(Cl)c1` [Example 436, trans-1-({5-[2-(3-Chloro-phenyl)-ethoxy]-6-ethyl-pyridine-3-carbonyl}-amino)-4-methyl-cyclohexanecarboxylic acid]: the IC50 was 100 to 1000 nM.

With `CC[C@H]1CC[C@@](NC(=O)c2cnc(OC)c(OCCc3cccc(CCO)c3)c2)(C(=O)O)CC1` [Example 424, trans-4-Ethyl-1-[(5-{2-[3-(2-hydroxy-ethyl)-phenyl]-ethoxy}-6-methoxy-pyridine-3-carbonyl)-amino]-cyclohexanecarboxylic acid], the IC50 is less than 100 nM.

In the case of `CC[C@H]1CC[C@@](NC(=O)c2ccc(OC)c(OCCc3cccc(Cl)c3)c2)(C(=O)O)CC1` [Example 207], the IC50 is less than 100 nM.

On to `COc1ncc(C(=O)N[C@]2(C(=O)O)CC[C@@H](C)CC2)cc1OCCc1cccc(C)c1` [Example 80, trans-1-{[6-Methoxy-5-(2-m-tolyl-ethoxy)-pyridine-3-carbonyl]-amino}-4-methyl-cyclohexanecarboxylic acid], for which the IC50 is less than 100 nM.

`COc1ccc(C(=O)NC2(C(=O)O)CCCCCC2)cc1OCCc1ccccc1C` [Example 19]: the IC50 lay in the range of 100 to 1000 nM.

In the case of `COc1ccc(C(=O)NC2(C(=O)O)CCCCCCC2)cc1OCCc1cc(C)ccc1F` [Example 24, 1-{3-[2-(2-Fluoro-5-methyl-phenyl)-ethoxy]-4-methoxy-benzoylamino}-cyclooctanecarboxylic acid], the IC50 lay in the range of 100 to 1000 nM.

`Cc1cccc(CCOc2cc(C(=O)N[C@]3(C(=O)O)CC[C@H](C(F)(F)F)CC3)cc3c2OC(F)(F)O3)c1` [Example 454, Cis-1-{[2,2-Difluoro-7-(2-m-tolyl-ethoxy)-benzo[1,3]dioxole-5-carbonyl]-amino}-4-trifluoromethyl-cyclohexanecarboxylic acid]: the IC50 was less than 100 nM.

On to `CC[C@@H]1C[C@]1(NC(=O)c1ccc(OC)c(-c2cccc(C(F)(F)F)c2)c1)C(=O)O` [Example 427, (1R,2R)-2-Ethyl-1-[(6-methoxy-3′-trifluoromethyl-biphenyl-3-carbonyl)-amino]-cyclopropanecarboxylic acid], for which the IC50 was in the range of 100 to 1000 nM.

As to `COc1ccc(C(=O)NC2(C(=O)O)CCCCCC2)cc1OCCc1cc(OC(F)(F)F)ccc1F` [Example 5], the IC50 is less than 100 nM.

For `CC[C@H]1CC[C@](NC(=O)c2cc(F)c(OCCO)c(-c3ccc(F)c(F)c3)c2)(C(=O)O)CC1` [Example 384], the IC50 is less than 100 nM.

In the case of `CC[C@H]1CC[C@](NC(=O)c2ccc(C=O)c(-c3cccc(C(F)(F)F)c3)c2)(C(=O)O)CC1` [Example 428, cis-4-Ethyl-1-[(6-formyl-3′-trifluoromethyl-biphenyl-3-carbonyl)-amino]-cyclohexanecarboxylic acid], the IC50 is less than 100 nM.

Regarding `COc1ccc(C(=O)NC2(C(=O)O)CCCCCC2)cc1OCCc1ccsc1` [Example 11, 1-{3-[2-(thiophen-3-yl)-ethoxy]-4-methoxy-benzoylamino]-cycloheptanecarboxylic acid], the IC50 was 100 to 1000 nM.

On to `COc1ccc(C(=O)NC2(C(=O)O)CCCCCC2)cc1OCC(F)(F)c1ccccc1` [Example 71, 1-[3-(2,2-Difluoro-2-phenyl-ethoxy)-4-methoxy-benzoylamino]-cycloheptanecarboxylic acid], for which the IC50 was less than 100 nM.

Take `COc1ccc(C(=O)NC2(C(=O)O)CCCCCC2)cc1OCCc1ccccc1Cl` [Example 364]: the IC50 was less than 100 nM.

On to `CC[C@H]1CC[C@@](NC(=O)c2cnc(OC)c(OCCc3cccc(Cl)c3)c2)(C(=O)O)CC1` [Example 397, trans-1-({5-[2-(3-Chloro-phenyl)-ethoxy]-6-methoxy-pyridine-3-carbonyl}-amino)-4-ethyl-cyclohexanecarboxylic acid], for which the IC50 was less than 100 nM.

Regarding `COc1ccc(C(=O)N[C@]2(C(=O)O)CC[C@@H](C)CC2)cc1OCCc1cccc(C2COC2)c1` [Example 128, trans-1-{4-Methoxy-3-[2-(3-oxetan-3-yl-phenyl)-ethoxy]-benzoylamino}-4-methyl-cyclohexanecarboxylic acid], the IC50 was 100 to 1000 nM.

As for `CC[C@H]1CC[C@@](NC(=O)c2cnc(OC)c(OCCc3cccc(C)c3)c2)(C(=O)O)CC1` [Example 395, trans-4-Ethyl-1-{[6-methoxy-5-(2-m-tolyl-ethoxy)-pyridine-3-carbonyl]-amino}-cyclohexanecarboxylic acid], the IC50 was less than 100 nM.

As to `CC[C@H]1CC[C@@](NC(=O)c2cnc(OC)c(-c3cccc(OC(F)(F)F)c3)c2)(C(=O)O)CC1` [Example 306], the IC50 is less than 100 nM.

For the compound `CCc1ncc(C(=O)N[C@]2(C(=O)O)CC[C@@H](CC)CC2)cc1OCCc1cccc(Cl)c1` [Example 438, trans-1-({5-[2-(3-Chloro-phenyl)-ethoxy]-6-ethyl-pyridine-3-carbonyl}-amino)-4-ethyl-cyclohexanecarboxylic acid], the IC50 is less than 100 nM.
